According to patent US10100096B2, “Tissue protective peptides and uses thereof” (Araim Pharmaceuticals, Inc., priority 2005, dated 2018):
Entries after “also recorded” stand apart in the source; their conditions may differ. No end group written: not given here.

How the values were obtained:
[1] = tested on: right sciatic nerve of rats; test: Sciatic nerve assay (in vivo sciatic nerve injury model); set-up: species or system rat; conditions: Example 2, Table 1, FIG. 1, FIG. 2, comparison with carbamylated EPO
Description: The tissue protective peptides were tested for any tissue protective activity using a Sciatic Nerve Assay. Sprague-Dawley rats (250-300 grams) (six per group, including control) were anesthetized using isoflurane (Baxter NPC 10019-773-60) and a Table Top Laboratory Anesthesia System (flowmeter set to 2-3 liters/minute @55 psi) for at least 3 minutes. The rat was then placed on a homeothermic blanket to ensure that the core temperature of the rat was maintained at 35-37° C. during the operation. Core temperature was monitored via a rectal probe. The right sciatic nerve of the anesthetized rat was exposed at mid thigh through a quadriceps muscle dissection; a 2 cm incision with a 15 blade scalpel was made through the skin parallel and over the quadriceps muscle and the quadriceps muscle was cut to expose the sciatic nerve using a pair of dissecting scissors. The sciatic nerve was then freed from the surrounding membranes. A 2-0 braided silk thread (Ethicon, 685-G) was passed under the nerve and the ends of the suture passed through a guide which was maintained perpendicular to the nerve. The end of the suture was then tied to a non-elastic cord which was then draped around the pulley system (a NYL pulley bearing MTD ¼″ B (PO Number 04174-01) with stabilizer) and a 100 gram weight attached to the non-elastic cord was slowly released. The weight was allowed to hang for 1 minute before the silk suture was cut to release the weight.
A 289 pmol/kg dose of carbamylated erythropoietin, a 289 pmol/kg dose of one peptide from the series A-J (see Table 1), or PBS was then injected into the caudal vein using a ½ cc insulin syringe.
The muscle and surgical incision were then closed and 5 ml of Lactated Ringers solution was injected subcutaneously into the rat. The core temperature of the rat was maintained at 35-37° C. using a heat blanket during recovery.
Over the next four days the rear toe splaying of the rats was determined by placing the rat in an acrylic tube with a diameter of 30 cm on the scanning surface of a digital scanner. […] Three acceptable scans of each rat were taken. From the scans, the Toe Spread (the distance between the ball of the first toe and the ball of the fifth toe) and the Intermediate Toe Spread (the distance between the ball of the second toe and the ball of the fourth toe) were measured. The static sciatic index was then computed in accordance with S. Erbayraktar et al., 2003, Proc Natl Acad Sci USA 100, 6741-6746 (hereby incorporated by reference in its entirety) and statistical analysis performed.

[2] = tested on: experimental autoimmune encephalomyelitis in mice; test: Murine EAE model; assay type: in vivo, mouse; conditions: C57BL/6 mice; 4.4 μg/kg daily starting day 4 after immunization; p<0.01; FIG. 13
Description: Experimental autoimmune encephalomyelitis ([…]) was induced in C57BL/6 female mice (6-8 weeks of age) according to Savino et al., 2006, J Neuroimmunol 172:27-37, hereby incorporated by reference in its entirety. EAE was induced by subcutaneous immunization in the flanks with a total of 200 μg of MOG35-55 (Multiple Peptide Systems, San Diego, Calif., USA) in incomplete Freund's adjuvant (Sigma. St. Louis, Mo., USA) supplemented with 8 mg/ml of Mycobacterium tuberculosis (strain H37RA; Difco, Detroit, Mich., USA). Animals were housed in specific pathogen-free conditions, allowing access to food and water ad libitum. Mice received 500 ng of pertussin toxin (Sigma) i.v. at the time of immunization and 48 h later. Weight and clinical score were recorded daily (0=healthy, 1=flaccid tail, 2=ataxia, and/or hind-limbs paresis, or slow righting reflex, […] 3=paralysis of hind limb and/or paresis of forelimbs, 4=paraparesis of fore limb, 5=moribund or death). Food pellets and the drinking water were placed on Petri plates on the floor of the cage to enable sick mice to eat and drink. Peptide E (SEQ ID NO:31) was administered daily subcutaneously at a dose of 4.4 micrograms/kg-bw, starting on day 4 after immunization.

[3] = In vivo assessment of erythropoietic activity and neutralizing antibodies; set-up: species or system rat; conditions: rats, 0.8 μg/kg s.c. 3 days/week over 130 days, FIG. 4; for increase in hemoglobin levels (hematocrit): EPO at equimolar dosage
Description: To evaluate the erythropoietic activity of tissue protective peptide F (SEQ ID NO:33) or peptide G (SEQ ID NO:40, as discussed supra a peptide constructed of the presenting residues of Helix B), the peptides were administered 0.8 μg/kg subcutaneously three time per week to male Sprague Dawley rats. The dosage schedule corresponded to the equivalent dose (on a molar basis) of EPO previously determined to be elicit maximum erythropoiesis. Hemoglobin concentration was determined periodically by use of an automated analyzer (Keska Corporation).

[4] = tested on: mouse P19 cells; test: P19 cell apoptosis upon withdrawal of serum; assay type: cell-based; conditions: times more potent than EPO, on a weight basis; FIG. 6
Description: Alternatively, tissue protection afforded by peptides can be determined using an assay employing mouse P19 cells, which are neuronal-like and die via apoptosis upon withdrawal of serum. Tissue protection of peptide D (SEQ ID NO:30) was compared to that of EPO using P19 clone P19S1801A1 as previously published (Siren et al., 2001, PNAS 98:4044, hereby incorporated by reference in its entirety). Cells were maintained undifferentiated in DMEM supplemented with 2 mM Lglutamine; 100 units/ml penicillin G; […] streptomycin sulfate (GIBCO); 10% (vol/vol) FBS (HyClone), containing 1.2 g/liter NaHCO3 and 10 mM Hepes buffer, hereafter referred to as complete medium. Serum-free medium contained the same components as above with the deletion of serum and the addition of 5 mg/ml of insulin; […] of transferrin; 20 nM progesterone; […] putrescine; 30 nM Na2SeO3 (from Sigma). For the experiments, 50% confluent cells were pretreated overnight with EPO or vehicle, dissociated with trypsin, washed in serum-free medium, and plated in 25-cm^2 tissue culture flasks at a final density of 10^4 cells/cm^2 in serum-free medium alone or with added EPO. Cell viability and was determined by trypan blue exclusion and a hemacytometer.

APPRLICDSRVLERYLLEAKEAE (Peptide A - consists of the N-terminal portion of Helix A corresponding to EPO amino acids 1-23) [EPO fragment, amino acids 1-23]
tissue protective activity in the sciatic nerve injury model (in words) [1]: is tissue protective

CSLNENIQEQLERALNSS (Peptide I - A chimera peptide linking the helix B exterior-presenting amino acids to the beta pleated sheet found within the AB loop of the EPO) [chimera: Peptide G + β-pleated sheet (33-39)]
tissue protective activity in the sciatic nerve injury model (in words) [1]: is tissue protective

GCAEHCSLNENITVPDTKVN (Peptide E - a portion of the A-B loop consisting of a small cysteine loop and a Beta-pleated sheet corresponding to EPO amino acids 28-47) [EPO fragment, amino acids 28-47]
clinical score / neurological function in EAE [2]: significantly reduced both the time course and severity; also recorded: significantly improved neurological function
tissue protective activity in the sciatic nerve injury model (in words) [1]: is tissue protective
tissue protective activity in the sciatic nerve injury model (in words) ([1]; listed as SEQ ID NO:31): exhibit tissue protective properties

NITTGCAEHCSLNE (Peptide B - consists of EPO amino acids 24-37) [EPO fragment, amino acids 24-37]
tissue protective activity in the sciatic nerve injury model (in words) [1]: is not tissue protective
increase in hemoglobin levels (hematocrit) [3]: Neither Peptide B nor Peptide C showed any increase in hematocrit

NITVPDTKVNFYAWKRMEVG (Peptide C - loop AB and N-terminal portion of helix B corresponding to EPO amino acids 38-57) [EPO fragment, amino acids 38-57]
potency relative to EPO in preventing apoptosis of p19 cells [4]: at least 10
tissue protective activity in the sciatic nerve injury model (in words) [1]: exhibit tissue protective properties
increase in hemoglobin levels (hematocrit) [3]: Neither Peptide B nor Peptide C showed any increase in hematocrit

QEQLERALNSS [Peptide G, QEQLERALNSS]
neutralizing antibody response against EPO [3]: no neutralizing antibody response was observed; also recorded: neither peptide elicits an antibody response

QEQLERALNSSLRRYINMLTRTR (Peptide J - A chimera peptide of Peptide G linked to pancreatic polypeptide helix)
tissue protective activity in the sciatic nerve injury model (in words) [1]: potent tissue protective activity

RYLLEAKEAENITTGC [Peptide F, RYLLEAKEAENITTGC]
neutralizing antibody response against EPO [3]: no neutralizing antibody response was observed; also recorded: neither peptide elicits an antibody response
